Several values for one entry are separate records, joined by “and”; a condition that tells them apart may be missing. Identical values can stand only once. Entries after “also recorded” stand apart in the source; their conditions may differ. Like-named read-outs stand apart in the source and are kept apart here.
Key:
[1] = test system: P. falciparum (NF54-HGL) stage V gametocytes fed to A. stephensi; experiment: Transmission-blocking mosquito feeding assay (oocyst luminescence); format: cell-based, Plasmodium falciparum
Protocol: The transmission-blocking activity of compounds was determined as described previously. Briefly, NF54-HGL parasites were set up at 1% parasitemia in a semi-automated shaker system at 5% hematocrit. […] Eight days after the feed, luminescence was quantified to determine oocyst intensity.

[2] = test system: artemisinin-resistant P. falciparum Cambodian field isolates; experiment: Drug susceptibility of culture-adapted Cambodian isolates; format: cell-based, Plasmodium falciparum
Protocol: Endpoint readout to determine parasites density was performed with a High-Content Confocal Imaging microscope (Lionheart™ FX Automated Microscope, Biotek), IC50 values were obtained using ICestimator software (http://www.antimalarial-icestimator.net/runregression1.2.htm).

[3] = test system: human peripheral blood lymphocytes; experiment: In vitro micronucleus screening assay
Protocol: Safety studies were performed by commercial services using their standard protocols. […] Genotoxicity was investigated using the Ames test (Bacterial Reverse Mutation Assay) (Covance Laboratories Ltd, North Yorkshire, England). In vitro mammalian cell micronucleus screening assay was studied in human peripheral blood lymphocytes (BioReliance Corporation, Rockville, USA). Cardiotoxicity was determined against the hERG channel in an automated patch clamp assay using the Qpatch or against the hNaV 1.5, hKV 1.5 and hCaV 1.2 using a manual patch-clamp technique (Metrion Biosciences, Cambridge, UK). Cytotoxicity in human and rat primary hepatocytes was assessed using the CellTiter-Blue assay performed by commercial services (KaLy-Cell). The viability of HepG2 cells was monitored through the addition of 1 mM resazurin. Following 6 h incubation, the relative amount of reduced resazurin was detected in a fluorimeter and compared to the assay controls (vehicle: 0.1% DMSO and positive control: 10 µM puromycin).

[4] = 4-hour treatment + S9, 13.6 ug/ml
[5] = 4-hour treatment + S9, 19.4 ug/ml
[6] = 4-hour treatment + S9, 27.7 ug/ml
[7] = 4-hour treatment + S9, 39.5 ug/ml
[8] = 4-hour treatment + S9, 56.5 ug/ml
[9] = 4-hour treatment + S9, 80.7 ug/ml
[10] = 4-hour treatment + S9, 115 ug/ml
[11] = 4-hour treatment + S9, 165 ug/ml
[12] = 4-hour treatment + S9, 235 ug/ml
[13] = 4-hour treatment + S9, 336 ug/ml
[14] = 4-hour treatment + S9, 480 ug/ml
[15] = 4-hour treatment + S9, 686 ug/ml
[16] = 4-hour treatment + S9, 980 ug/ml
[17] = 4-hour treatment + S9, 1400 ug/ml
[18] = 4-hour treatment + S9, 2000 ug/ml
[19] = 4-hour treatment - S9, 13.6 ug/ml
[20] = 4-hour treatment - S9, 19.4 ug/ml
[21] = 4-hour treatment - S9, 27.7 ug/ml
[22] = 4-hour treatment - S9, 39.5 ug/ml
[23] = 4-hour treatment - S9, 56.5 ug/ml
[24] = 4-hour treatment - S9, 80.7 ug/ml
[25] = 4-hour treatment - S9, 115 ug/ml
[26] = 4-hour treatment - S9, 165 ug/ml
[27] = 4-hour treatment - S9, 235 ug/ml
[28] = 4-hour treatment - S9, 336 ug/ml
[29] = 4-hour treatment - S9, 480 ug/ml
[30] = 4-hour treatment - S9, 686 ug/ml
[31] = 4-hour treatment - S9, 980 ug/ml
[32] = 4-hour treatment - S9, 1400 ug/ml
[33] = 4-hour treatment - S9, 2000 ug/ml

For `C[C@@H](CNC(=O)[C@H](O)C(C)(C)CO)NC(=O)c1cc(F)c(F)cc1F` [MMV693183], the midgut infection ([1]; 1 µM directly at the time of the mosquito feed) was “did not inhibit midgut infection”, the IC50 ([1]; gametocytes treated 24 h before feeding to A. stephensi, read-out: IC50 oocyst formation) was 38 nM and the sensitivity of isolates [2] was “sensitive to MMV693183”. For the same compound, the IC50 ([2]; ART isolates, read-out: IC50s) was 1.36 nM and 1.4 nM and 1.6 nM and 1.2 nM and 1.3 nM, the IC50 ([2]; ART-PPQ-AQ isolates, read-out: IC50s) was 0.84 nM and 1.26 nM and 1.36 nM and 1.54 nM and 1.3 nM and 1.03 nM and 1.1 nM and 1.39 nM and the IC50 ([2]; Cambodian ACT-resistant isolates, read-out: IC50) was 0.21 to 1.84 nM. For the same compound, the IC50 ([2]; MQ-ART isolates, read-out: IC50s) was 1.48 nM, the IC50 ([2]; WT isolates, read-out: IC50s) was 1.57 nM and 1.28 nM and 1.01 nM and 1.31 nM and 1.26 nM and 1.38 nM and 1.32 nM and 1.61 nM and the CBPI [3, 4] was 1.808. For the same compound, the “Cytotoxicity (%)” value [3, 4] was 12%, the CBPI [3, 5] was 1.792 and the “Cytotoxicity (%)” value [3, 5] was 14%. For the same compound, the CBPI [3, 6] was 1.76, the “Cytotoxicity (%)” value [3, 6] was 17% and the CBPI [3, 7] was 1.788. The “Cytotoxicity (%)” value [3, 7] was 14%, the CBPI [3, 8] was 1.84 and the “Cytotoxicity (%)” value [3, 8] was 9%. The CBPI [3, 9] was 1.792, the “Cytotoxicity (%)” value [3, 9] was 14% and the CBPI [3, 10] was 1.86. The “Cytotoxicity (%)” value [3, 10] was 7%, the CBPI [3, 11] was 1.824 and the “Cytotoxicity (%)” value [3, 11] was 10%. For the same compound, the CBPI [3, 12] was 1.772, the “Cytotoxicity (%)” value [3, 12] was 16% and the CBPI [3, 13] was 1.824. The “Cytotoxicity (%)” value [3, 13] was 10%, the CBPI [3, 14] was 1.848 and the “Cytotoxicity (%)” value [3, 14] was 8%. For the same compound, the “Percentage of MNBN Cells/Total BN Cells counted (%)” value [3, 14] was 0.4%, the CBPI [3, 15] was 1.824 and the “Cytotoxicity (%)” value [3, 15] was 10%. For the same compound, the CBPI [3, 16] was 1.84, the “Cytotoxicity (%)” value [3, 16] was 9% and the CBPI [3, 17] was 1.836. The “Cytotoxicity (%)” value [3, 17] was 9%, the “Percentage of MNBN Cells/Total BN Cells counted (%)” value [3, 17] was 0.6% and the CBPI [3, 18] was 1.388. For the same compound, the “Cytotoxicity (%)” value [3, 18] was 58%, the “Percentage of MNBN Cells/Total BN Cells counted (%)” value [3, 18] was 0.4% and the CBPI [3, 19] was 1.916. The “Cytotoxicity (%)” value [3, 19] was 0%, the CBPI [3, 20] was 1.86 and the “Cytotoxicity (%)” value [3, 20] was 6%. For the same compound, the CBPI [3, 21] was 1.912, the “Cytotoxicity (%)” value [3, 21] was 0% and the CBPI [3, 22] was 1.832. For the same compound, the “Cytotoxicity (%)” value [3, 22] was 9%, the CBPI [3, 23] was 1.864 and the “Cytotoxicity (%)” value [3, 23] was 6%. The CBPI [3, 24] was 1.876, the “Cytotoxicity (%)” value [3, 24] was 4% and the CBPI [3, 25] was 1.88. The “Cytotoxicity (%)” value [3, 25] was 4%, the CBPI [3, 26] was 1.804 and the “Cytotoxicity (%)” value [3, 26] was 12%. For the same compound, the CBPI [3, 27] was 1.84, the “Cytotoxicity (%)” value [3, 27] was 8% and the CBPI [3, 28] was 1.792. For the same compound, the “Cytotoxicity (%)” value [3, 28] was 14%, the CBPI [3, 29] was 1.8 and the “Cytotoxicity (%)” value [3, 29] was 13%. The “Percentage of MNBN Cells/Total BN Cells counted (%)” value [3, 29] was 0.4%, the CBPI [3, 30] was 1.832 and the “Cytotoxicity (%)” value [3, 30] was 9%. For the same compound, the CBPI [3, 31] was 1.808, the “Cytotoxicity (%)” value [3, 31] was 12% and the CBPI [3, 32] was 1.704. The “Cytotoxicity (%)” value [3, 32] was 23%, the “Percentage of MNBN Cells/Total BN Cells counted (%)” value [3, 32] was 0.4% and the CBPI [3, 33] was 1.496. For the same compound, the “Cytotoxicity (%)” value [3, 33] was 46%, the “Percentage of MNBN Cells/Total BN Cells counted (%)” value [3, 33] was 0.4% and the micronucleus test result ([3]; up to 2000 µg/ml, with or without S-9) was “No induction of micronuclei; also recorded: negative”.

— PMC9021288 (Nature Communications, 2022)
